Legend:
Format in all cases: in vivo, mouse
[1] = system: male C57/BL6 mice on high fat diet; assay: Diet-induced obesity model, semaglutide with Ab109, withdrawal and continuous arms (Example 6); conditions: for Relative Fat Mass Day 63 (% Body Fat): 60%/45% high fat diet
Description: Male C57/BL6 male mice (n=8/group) were either fed regular mouse chow (Group 1) or placed on a 60% high fat diet at six weeks of age and maintained on the 60% high fat diet until 21 weeks of age (Groups 2-8), at which time the study began (day 0). On day 0, animals in groups 2-8 were switched to a 45% high fat diet and maintained on the 45% high fat diet until the animals were terminated. […] Body weight was measured three times per week and qNMR measurements of lean mass and fat mass were obtained on the days set forth.
Animals in groups 3 and 4 were dosed with semaglutide weekly for 14 days, then terminated. Animals in groups 5 and 6 (weight regain groups), were treated with semaglutide for 35 days, then the semaglutide treatment was ended while the myostatin activation inhibiting antibody treatment continued until the animals were terminated on day 63. The animals in Groups 7 and 8 were treated with semaglutide for 63 days, i.e., they remained on semaglutide until the study terminated on day 63.
At termination, left and right gastrocnemius muscles were removed and frozen; the liver was weighed, one lobe was fixed, and the remainder was frozen; epididymal adipose tissue was removed and weighed; subcutaneous adipose tissue was removed and weighed; and a terminal serum bleed was obtained.

circulating leptin = assay: Circulating leptin (U-PLEX Metabolic Hormones Combo 1), Example 6; conditions: for Leptin Day 64 (circulating leptin): 60%/45% high fat diet
Description: Circulating leptin was measured using the U-PLEX Metabolic Hormones Combo 1 (mouse) according to manufacturer's instructions (Meso Scale Diagnostics, #K15306K-2). As expected, circulating leptin was higher in animals fed the high fat diet than animals fed a standard chow.

[2] = system: male C57/BL6 mice on high fat diet; assay: Diet-induced obesity model, Ab109 with 0.01 or 0.04 mg/kg semaglutide (Example 9); conditions: for loss in quadriceps weight: FIG. 21A
Description: Male C57/BL6 male mice (n=8/group) were placed on a 60% high fat diet at ˜6 weeks of age and maintained on the 60% high fat diet until 21 weeks of age (Groups 1-12), at which time the study began (day −7). On day −7, animals in groups 1-12 were switched to a 45% high fat diet and maintained on the 45% high fat diet until the animals were terminated. […] Body weight was measured three times per week and qNMR measurements of lean mass and fat mass were obtained pre-dose on day 0 and on days 7, 14 and 21. Fasting glucose was measured on day 18 after a 4 hour fast.
Animals in groups 3-12 were dosed with semaglutide daily for 3 weeks, then terminated. Animals in groups 1, 3, and 4 were treated with IgG control antibody, and those in groups 2, 5-12 were treated with myostatin activation inhibiting antibody treatment, for 3 weeks.
At termination, left gastrocnemius and quadriceps muscles were removed and frozen; the liver was weighed, one lobe was frozen; epididymal (perigonadal) adipose tissue was removed and weighed; inguinal (subcutaneous) adipose tissue was removed and weighed; and a terminal serum bleed was obtained.

total myostatin in serum = assay: Circulating total myostatin in serum (acidification ELISA), dexamethasone model; conditions: as compared to apitegromab
Description: Briefly, serum samples were acidified at low pH (e.g., pH ˜2.5) to dissociate the bound antibody from the immune complex and to convert all myostatin in the sample to the active form of growth factor (i.e., mature myostatin). Samples were then neutralized and assayed for the presence of mature myostatin on ELISA plates coated with anti-mature myostatin antibodies as capture reagents.

[3] = semaglutide 0.04 mg/kg day 7-35 (regain arm) with control hIgG
[4] = semaglutide 0.04 mg/kg day 7-63 with control hIgG
[5] = semaglutide 0.04 mg/kg and hIgG

Substance: semaglutide [reference compound]
- Relative Fat Mass Day 63 (% Body Fat) [1, 3]: 28.69 % Body Fat
- Relative Fat Mass Day 63 (% Body Fat) [1, 4]: 14.84 % Body Fat
- lean mass lost while on semaglutide [1, 5]: about 4%
- net loss of lean mass at the end of the study [1, 5]: 2.5%
- fat mass ([1]; semaglutide 0.04 mg/kg, FIG. 14D): induced fat mass loss
- Leptin Day 64 (circulating leptin) (circulating leptin; [3]): 37.87 ng/mL
- Leptin Day 64 (circulating leptin) (circulating leptin; [4]): 6.357 ng/mL
- circulating leptin (circulating leptin; treatment arm as in the words, FIG. 14K): Continuous semaglutide administration lowered circulating leptin
- loss in lean mass ([2]; 0.01 mg/kg semaglutide, FIG. 20B): 4.7%
- lean mass lost ([2]; 0.04 mg/kg semaglutide and hIgG, 3 weeks, FIG. 20A): about 9.5%
- loss in quadriceps weight ([2]; semaglutide high dose (0.04 mg/kg)): −7.6%
- loss in quadriceps weight ([2]; semaglutide low dose (0.01 mg/kg)): −4.8%

Substance: apitegromab: prior art myostatin-selective activation inhibitor antibody targeting pro/latent myostatin [reference compound]
- accumulation of total or latent myostatin in serum samples from dosed subjects (total myostatin in serum): increased accumulation

Source: US12338279B2, “Selective and potent inhibitory antibodies of myostatin activation” (SCHOLAR ROCK, INC., priority 2022, dated 2025)
